# Reference: ChEMBL document CHEMBL1201862, “PubChem BioAssay data set” (2004)
#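 The compound was tested at five concentrations on cells cultured in 96-well plates, with a 48-hour exposure period. The concentration for 50% growth inhibition is given as GI50.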 Active and inactive are the calls of the source. Rule as the data show it: active = GI50 up to about 1.1 µM and inactive = higher.
# Legend:
# Experiment in all cases: inhibition of tumour cell growth, NCI panel, 48 h
# NCI-H23 = system: NCI-H23
# OVCAR-4 = system: OVCAR-4
# NCI-H522 = system: NCI-H522
# UO-31 = system: UO-31
# MDA-MB-435 = system: MDA-MB-435
# MOLT-4 = system: MOLT-4
# HCT-15 = system: HCT-15
# SNB-19 = system: SNB-19
# EKVX = system: EKVX
# SW-620 = system: SW-620
# HOP-62 = system: HOP-62
# RXF 393 = system: RXF 393
# KM12 = system: KM12
# OVCAR-5 = system: OVCAR-5
# SF-268 = system: SF-268
# SK-MEL-28 = system: SK-MEL-28
# HCT-116 = system: HCT-116
# MCF7 = system: MCF7
# CCRF-CEM = system: CCRF-CEM
# A498 = system: A498
# TK-10 = system: TK-10
# U-251 = system: U-251
# K562 = system: K562
# HT-29 = system: HT-29
# SK-OV-3 = system: SK-OV-3
# DU-145 = system: DU-145
# HOP-92 = system: HOP-92
# A549 = system: A549
# RPMI-8226 = system: RPMI-8226
# NCI-H460 = system: NCI-H460
# BT-549 = system: BT-549
# SK-MEL-5 = system: SK-MEL-5
# HCC 2998 = system: HCC 2998
# MDA-N = system: MDA-N
# ACHN = system: ACHN
# Malme-3M = system: Malme-3M
# LOX IMVI = system: LOX IMVI
# M14 = system: M14
# CAKI-1 = system: CAKI-1
# HL-60 = system: HL-60
# IGROV-1 = system: IGROV-1
# SNB-75 = system: SNB-75
# PC-3 = system: PC-3
# OVCAR-3 = system: OVCAR-3
# UACC-62 = system: UACC-62
# COLO 205 = system: COLO 205
# UACC-257 = system: UACC-257
# 786-0 = system: 786-0
# SK-MEL-2 = system: SK-MEL-2
# NCI/ADR-RES = system: NCI/ADR-RES
# Hs-578T = system: Hs-578T
# NCI-H226 = system: NCI-H226
# MDA-MB-231 = system: MDA-MB-231
# SF-295 = system: SF-295
# OVCAR-8 = system: OVCAR-8
# SN12C = system: SN12C
# T47D = system: T47D
# SF-539 = system: SF-539
# SR = system: SR
smiles,measurement,setting,value
N/C(=N\c1ccc(Cl)c(Cl)c1)c1ccccc1N,GI50,NCI-H23,24.3 µM (inactive)
same,GI50,OVCAR-4,50.8 µM (inactive)
same,GI50,NCI-H522,11.4 µM (inactive)
same,GI50,UO-31,24.2 µM (inactive)
same,GI50,MDA-MB-435,18.5 µM (inactive)
same,GI50,MOLT-4,2.7 µM (inactive)
same,GI50,HCT-15,28.2 µM
same,GI50,SNB-19,31.3 µM (inactive)
same,GI50,EKVX,18.3 µM (inactive)
same,GI50,SW-620,63.8 µM (inactive)
same,GI50,HOP-62,57.4 µM (inactive)
same,GI50,RXF 393,32.7 µM (inactive)
same,GI50,KM12,33.6 µM (inactive)
same,GI50,OVCAR-5,36 µM (inactive)
same,GI50,SF-268,20.2 µM (inactive)
same,GI50,SK-MEL-28,24 µM (inactive)
same,GI50,HCT-116,17.2 µM (inactive)
same,GI50,MCF7,52.1 µM (inactive)
same,GI50,CCRF-CEM,27.7 µM (inactive)
same,GI50,A498,22.3 µM (inactive)
same,GI50,TK-10,36.8 µM (inactive)
same,GI50,U-251,30.1 µM (inactive)
same,GI50,K562,18.4 µM (inactive)
same,GI50,HT-29,24.3 µM (inactive)
same,GI50,SK-OV-3,85.7 µM (inactive)
same,GI50,DU-145,51.9 µM (inactive)
same,GI50,HOP-92,2.88 µM (inactive)
same,GI50,A549,25.3 µM (inactive)
same,GI50,RPMI-8226,15.6 µM (inactive)
same,GI50,NCI-H460,34.8 µM (inactive)
same,GI50,BT-549,24 µM (inactive)
same,GI50,SK-MEL-5,22.6 µM (inactive)
same,GI50,HCC 2998,17.7 µM (inactive)
same,GI50,MDA-N,19.6 µM (inactive)
same,GI50,ACHN,56.8 µM (inactive)
same,GI50,Malme-3M,19 µM (inactive)
same,GI50,LOX IMVI,22.1 µM (inactive)
same,GI50,M14,15.5 µM (inactive)
same,GI50,CAKI-1,30.3 µM (inactive)
same,GI50,HL-60,22.2 µM (inactive)
same,GI50,IGROV-1,13.3 µM (inactive)
same,GI50,SNB-75,31.4 µM (inactive)
same,GI50,PC-3,19.3 µM (inactive)
same,GI50,OVCAR-3,39.5 µM (inactive)
same,GI50,UACC-62,54.5 µM (inactive)
same,GI50,COLO 205,20.6 µM (inactive)
same,GI50,UACC-257,27.1 µM (inactive)
same,GI50,786-0,28.2 µM (inactive)
same,GI50,SK-MEL-2,15.4 µM (inactive)
same,GI50,NCI/ADR-RES,19.2 µM (inactive)
same,GI50,Hs-578T,12.3 µM (inactive)
same,GI50,NCI-H226,42.6 µM (inactive)
same,GI50,MDA-MB-231,25.3 µM (inactive)
same,GI50,SF-295,40.6 µM (inactive)
same,GI50,OVCAR-8,26.4 µM (inactive)
CC(=O)c1cc(S(=O)(=O)c2ccc(O)c(C(C)=O)c2)ccc1O,GI50,NCI-H23,58.1 µM (inactive)
same,GI50,OVCAR-4,> 100 µM (inactive)
same,GI50,NCI-H522,> 100 µM (inactive)
same,GI50,UO-31,28.4 µM (inactive)
same,GI50,MDA-MB-435,51.3 µM (inactive)
same,GI50,MOLT-4,25.4 µM (inactive)
same,GI50,HCT-15,95.9 µM
same,GI50,SNB-19,68.5 µM (inactive)
same,GI50,EKVX,> 100 µM (inactive)
same,GI50,SW-620,> 100 µM (inactive)
same,GI50,HOP-62,> 100 µM (inactive)
same,GI50,SN12C,> 100 µM (inactive)
same,GI50,RXF 393,71.4 µM (inactive)
same,GI50,KM12,44.9 µM (inactive)
same,GI50,OVCAR-5,> 100 µM (inactive)
same,GI50,SF-268,55.6 µM (inactive)
same,GI50,SK-MEL-28,38.7 µM (inactive)
same,GI50,HCT-116,92 µM (inactive)
same,GI50,MCF7,67.6 µM (inactive)
same,GI50,CCRF-CEM,34.4 µM (inactive)
same,GI50,A498,64.4 µM (inactive)
same,GI50,TK-10,52 µM (inactive)
same,GI50,U-251,31.6 µM (inactive)
same,GI50,K562,79.4 µM (inactive)
same,GI50,HT-29,> 100 µM (inactive)
same,GI50,SK-OV-3,66.7 µM (inactive)
same,GI50,DU-145,> 100 µM (inactive)
same,GI50,HOP-92,> 100 µM (inactive)
same,GI50,A549,49.4 µM (inactive)
same,GI50,RPMI-8226,44.4 µM (inactive)
same,GI50,NCI-H460,84.9 µM (inactive)
same,GI50,BT-549,23.5 µM (inactive)
same,GI50,T47D,51.8 µM (inactive)
same,GI50,SK-MEL-5,> 100 µM (inactive)
same,GI50,HCC 2998,58.2 µM (inactive)
same,GI50,MDA-N,> 100 µM (inactive)
same,GI50,ACHN,91 µM (inactive)
same,GI50,SF-539,30.2 µM (inactive)
same,GI50,Malme-3M,> 100 µM (inactive)
same,GI50,LOX IMVI,70.3 µM (inactive)
same,GI50,M14,67.9 µM (inactive)
same,GI50,CAKI-1,> 100 µM (inactive)
same,GI50,IGROV-1,> 100 µM (inactive)
same,GI50,PC-3,75.5 µM (inactive)
same,GI50,OVCAR-3,> 100 µM (inactive)
same,GI50,UACC-62,18.4 µM (inactive)
same,GI50,COLO 205,> 100 µM (inactive)
same,GI50,UACC-257,> 100 µM (inactive)
same,GI50,786-0,98.2 µM (inactive)
same,GI50,SK-MEL-2,92 µM (inactive)
same,GI50,NCI/ADR-RES,58.7 µM (inactive)
same,GI50,SR,33.4 µM (inactive)
same,GI50,NCI-H226,> 100 µM (inactive)
same,GI50,MDA-MB-231,> 100 µM (inactive)
same,GI50,SF-295,36.5 µM (inactive)
same,GI50,OVCAR-8,70 µM (inactive)
O=c1[nH]c2ccc(CC(=S)N3CCN(c4ccccc4)CC3)cc2s1,GI50,NCI-H23,20.7 µM (inactive)
same,GI50,UO-31,0.063 µM (active)
same,GI50,MDA-MB-435,72.8 µM (inactive)
same,GI50,MOLT-4,16.5 µM (inactive)
same,GI50,HCT-15,42.2 µM
same,GI50,SNB-19,> 100 µM (inactive)
same,GI50,EKVX,26.5 µM (inactive)
same,GI50,SW-620,71.9 µM (inactive)
same,GI50,HOP-62,16.6 µM (inactive)
same,GI50,SN12C,70.6 µM (inactive)
same,GI50,RXF 393,18 µM (inactive)
same,GI50,KM12,26.2 µM (inactive)
same,GI50,OVCAR-5,15.7 µM (inactive)
same,GI50,SF-268,26.1 µM (inactive)
same,GI50,SK-MEL-28,> 100 µM (inactive)
same,GI50,HCT-116,33.9 µM (inactive)
same,GI50,MCF7,92 µM (inactive)
same,GI50,CCRF-CEM,68.9 µM (inactive)
same,GI50,A498,62.2 µM (inactive)
same,GI50,TK-10,36.6 µM (inactive)
same,GI50,U-251,3.95 µM (inactive)
same,GI50,K562,48.2 µM (inactive)
same,GI50,HT-29,51.8 µM (inactive)
same,GI50,SK-OV-3,15.7 µM (inactive)
same,GI50,DU-145,51.6 µM (inactive)
same,GI50,RPMI-8226,12.7 µM (inactive)
same,GI50,NCI-H460,13 µM (inactive)
same,GI50,BT-549,26.6 µM (inactive)
same,GI50,MDA-N,> 100 µM (inactive)
same,GI50,ACHN,18 µM (inactive)
same,GI50,SF-539,28 µM (inactive)
same,GI50,Malme-3M,13.5 µM (inactive)
same,GI50,LOX IMVI,67 µM (inactive)
same,GI50,M14,23.1 µM (inactive)
same,GI50,CAKI-1,77.1 µM (inactive)
same,GI50,HL-60,> 100 µM (inactive)
same,GI50,IGROV-1,9.16 µM (inactive)
same,GI50,PC-3,18.3 µM (inactive)
same,GI50,OVCAR-3,23.4 µM (inactive)
same,GI50,UACC-62,62.7 µM (inactive)
same,GI50,COLO 205,57.1 µM (inactive)
same,GI50,UACC-257,> 100 µM (inactive)
same,GI50,786-0,34.4 µM (inactive)
same,GI50,SK-MEL-2,82.2 µM (inactive)
same,GI50,NCI/ADR-RES,13.2 µM (inactive)
same,GI50,Hs-578T,13.8 µM (inactive)
same,GI50,SR,19.9 µM (inactive)
same,GI50,NCI-H226,14.3 µM (inactive)
same,GI50,MDA-MB-231,21.9 µM (inactive)
same,GI50,SF-295,12.9 µM (inactive)
same,GI50,OVCAR-8,14.3 µM (inactive)
